Holding throughout (format): biochemical
In test [1] the target is T1, c-MET kinase (Seq. ID no. 2) (Homo sapiens, UniProt P08581).
T1 construct: purchased Invitrogen PV3143
The experiment in a line: c-MET Kinase Assay (ADP production, pyruvate kinase/lactate dehydrogenase coupled). The following applies: read-out: cMET Enzyme Assay. As to the method: In this assay, the oxidation of NADH (thus the decrease at A340 nm) was continuously monitored spectrophometrically. […] Test compounds were incubated with C-Met (Seq. ID no. 2) and other reaction reagents at 22° C. for 0.5 h before ATP (100 μM) was added to start the reaction. The absorption at 340 nm was monitored continuously for 2 hours at 30° C. on Polarstar Optima plate reader (BMG). The reaction rate was calculated using the 1.0 to 2.0 h time frame. Percent inhibition was obtained by comparison of reaction rate with that of a control (i.e. with no test compound). IC50 values were calculated from a series of percent inhibition values determined at a range of inhibitor concentrations using software routines as implemented in the GraphPad Prism software package.

In test [2] the target is KDR kinase (Seq ID No. 3) (Homo sapiens, UniProt P35968, DEL940-989/E990V). The experiment in a line: KDR Kinase Assay (assays K1, K2, K3). The following applies: assay variant K1, K2 or K3 not stated; read-out: KDR Enzyme Assay.
The target of test [3] is T2, FMS kinase (Homo sapiens, UniProt P07333).
T2 construct: purchased Invitrogen or Millipore
The experiment in a line: FMS Kinase Assay. The conditions noted are these: read-out: FMS Enzyme Assay. Here is the method: (§1) In this assay, the oxidation of NADH (thus the decrease at A340 nm) was continuously monitored spectrophometrically. The reaction mixture (100 μl) contained FMS (purchased from Invitrogen or Millipore, 6 nM), polyE4Y (1 mg/ml), MgCl2 (10 mM), pyruvate kinase (4 units), lactate dehydrogenase (0.7 units), phosphoenol pyruvate (1 mM) and NADH (0.28 mM) and ATP (500 μM) in a 90 mM Tris buffer containing 0.2% octyl-glucoside and 1% DMSO, pH 7.5. The inhibition reaction was started by mixing serial diluted test compound with the above reaction mixture. The absorption at 340 nm was monitored continuously for 4 hours at 30° C. on a Polarstar Optima or Synergy 2 plate reader. The reaction rate was calculated using the 2 to 3 h time frame. Percent inhibition was obtained by comparison of reaction rate with that of a control (i.e. with no test compound). IC50 values were calculated from a series of percent inhibition values determined at a range of inhibitor concentrations using software routines as implemented in the GraphPad Prism software package.

In test [4] the target is T3, c-KIT kinase (Seq. ID no. 1) (Homo sapiens, UniProt P10721).
T3 construct: purchased ProQinase
Briefly: c-KIT kinase Assay (ADP production, pyruvate kinase/lactate dehydrogenase coupled). The conditions noted are these: read-out: cKIT Enzyme Assay. Here is the method: In this assay, the oxidation of NADH (thus the decrease at A340 nm) was continuously monitored spectrophometrically. […] The absorption at 340 nm was monitored continuously for 0.5 hours at 30° C. on Polarstar Optima plate reader (BMG). The reaction rate was calculated using the 0 to 0.5 h time frame. Percent inhibition was obtained by comparison of reaction rate with that of a control (i.e. with no test compound). IC50 values were calculated from a series of percent inhibition values determined at a range of inhibitor concentrations using software routines as implemented in the GraphPad Prism software package.

Test [5] has as its target T4, PDGFRα kinase (Homo sapiens, UniProt P16234).
T4 construct: purchased Invitrogen
The experiment in a line: PDGFRα Kinase Assay. The conditions noted are these: read-out: PDGFRa Enzyme Assay. Here is the method: as §1, with “Activity of PDGFRα kinase was determined by following the production of ADP from the kinase reaction through coupling with the pyruvate kinase/lactate dehydrogenase system. In” for “In”, “PDGFRα (Invitrogen, 10” for “FMS (purchased from Invitrogen or Millipore, 6”

For test [6], the target named is T5, PDGFRβ (Homo sapiens, UniProt P09619).
T5 construct: purchased Invitrogen
The experiment in a line: PDGFRβ Kinase Assay. The following applies: read-out: PDGFRb Enzyme Assay.

Molecules are shown by their SMILES.

KDR kinase (Seq ID No. 3), sequence (P35968 with tags, fused parts or gaps DEL940-989/E990V): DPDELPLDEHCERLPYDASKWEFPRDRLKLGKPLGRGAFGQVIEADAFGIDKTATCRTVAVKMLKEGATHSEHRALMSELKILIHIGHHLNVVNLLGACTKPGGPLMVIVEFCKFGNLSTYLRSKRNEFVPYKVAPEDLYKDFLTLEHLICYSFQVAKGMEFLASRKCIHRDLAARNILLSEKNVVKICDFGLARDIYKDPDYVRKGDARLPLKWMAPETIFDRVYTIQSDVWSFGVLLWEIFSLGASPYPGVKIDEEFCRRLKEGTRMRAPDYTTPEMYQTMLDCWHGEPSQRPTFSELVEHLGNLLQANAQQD
T1 sequence (P08581 with tags, fused parts or gaps): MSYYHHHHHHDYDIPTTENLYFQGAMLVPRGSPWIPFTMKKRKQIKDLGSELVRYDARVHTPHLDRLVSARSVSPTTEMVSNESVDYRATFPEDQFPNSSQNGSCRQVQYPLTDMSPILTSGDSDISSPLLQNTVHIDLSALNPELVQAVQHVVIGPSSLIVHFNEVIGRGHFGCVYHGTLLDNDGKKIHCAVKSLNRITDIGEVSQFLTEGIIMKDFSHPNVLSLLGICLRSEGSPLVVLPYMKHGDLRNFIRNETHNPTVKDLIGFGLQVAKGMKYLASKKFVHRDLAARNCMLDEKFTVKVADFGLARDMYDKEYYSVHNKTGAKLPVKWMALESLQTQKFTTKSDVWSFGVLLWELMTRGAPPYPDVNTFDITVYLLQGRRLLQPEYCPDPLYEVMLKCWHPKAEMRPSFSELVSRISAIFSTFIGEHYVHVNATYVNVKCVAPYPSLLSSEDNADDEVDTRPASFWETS
T2 sequence (P07333 20-972): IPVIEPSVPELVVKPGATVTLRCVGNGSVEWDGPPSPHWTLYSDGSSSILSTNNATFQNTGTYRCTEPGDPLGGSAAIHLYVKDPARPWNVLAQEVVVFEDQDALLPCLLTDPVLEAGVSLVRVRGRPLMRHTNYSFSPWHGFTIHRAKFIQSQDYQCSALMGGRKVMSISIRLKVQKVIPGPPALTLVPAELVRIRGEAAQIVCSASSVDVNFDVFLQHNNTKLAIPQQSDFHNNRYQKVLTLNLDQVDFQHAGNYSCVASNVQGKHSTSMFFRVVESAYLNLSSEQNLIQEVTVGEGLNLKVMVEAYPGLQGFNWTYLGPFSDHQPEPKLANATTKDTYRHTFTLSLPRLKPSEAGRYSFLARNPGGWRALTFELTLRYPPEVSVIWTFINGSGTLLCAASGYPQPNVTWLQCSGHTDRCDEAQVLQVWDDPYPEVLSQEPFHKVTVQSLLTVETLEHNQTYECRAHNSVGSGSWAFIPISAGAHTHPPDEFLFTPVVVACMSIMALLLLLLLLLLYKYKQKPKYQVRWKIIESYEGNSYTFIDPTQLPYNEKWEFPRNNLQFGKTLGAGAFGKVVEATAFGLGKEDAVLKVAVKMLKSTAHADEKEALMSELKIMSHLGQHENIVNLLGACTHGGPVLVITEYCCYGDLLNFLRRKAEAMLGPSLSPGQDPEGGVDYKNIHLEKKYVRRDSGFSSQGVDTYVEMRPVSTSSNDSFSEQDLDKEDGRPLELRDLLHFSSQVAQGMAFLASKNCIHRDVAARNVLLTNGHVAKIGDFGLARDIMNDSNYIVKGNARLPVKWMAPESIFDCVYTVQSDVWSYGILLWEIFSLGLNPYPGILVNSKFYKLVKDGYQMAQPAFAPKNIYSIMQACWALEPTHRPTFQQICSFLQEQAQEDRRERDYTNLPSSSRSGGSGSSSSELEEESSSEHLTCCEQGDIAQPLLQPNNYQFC
T4 sequence (P16234 24-1089): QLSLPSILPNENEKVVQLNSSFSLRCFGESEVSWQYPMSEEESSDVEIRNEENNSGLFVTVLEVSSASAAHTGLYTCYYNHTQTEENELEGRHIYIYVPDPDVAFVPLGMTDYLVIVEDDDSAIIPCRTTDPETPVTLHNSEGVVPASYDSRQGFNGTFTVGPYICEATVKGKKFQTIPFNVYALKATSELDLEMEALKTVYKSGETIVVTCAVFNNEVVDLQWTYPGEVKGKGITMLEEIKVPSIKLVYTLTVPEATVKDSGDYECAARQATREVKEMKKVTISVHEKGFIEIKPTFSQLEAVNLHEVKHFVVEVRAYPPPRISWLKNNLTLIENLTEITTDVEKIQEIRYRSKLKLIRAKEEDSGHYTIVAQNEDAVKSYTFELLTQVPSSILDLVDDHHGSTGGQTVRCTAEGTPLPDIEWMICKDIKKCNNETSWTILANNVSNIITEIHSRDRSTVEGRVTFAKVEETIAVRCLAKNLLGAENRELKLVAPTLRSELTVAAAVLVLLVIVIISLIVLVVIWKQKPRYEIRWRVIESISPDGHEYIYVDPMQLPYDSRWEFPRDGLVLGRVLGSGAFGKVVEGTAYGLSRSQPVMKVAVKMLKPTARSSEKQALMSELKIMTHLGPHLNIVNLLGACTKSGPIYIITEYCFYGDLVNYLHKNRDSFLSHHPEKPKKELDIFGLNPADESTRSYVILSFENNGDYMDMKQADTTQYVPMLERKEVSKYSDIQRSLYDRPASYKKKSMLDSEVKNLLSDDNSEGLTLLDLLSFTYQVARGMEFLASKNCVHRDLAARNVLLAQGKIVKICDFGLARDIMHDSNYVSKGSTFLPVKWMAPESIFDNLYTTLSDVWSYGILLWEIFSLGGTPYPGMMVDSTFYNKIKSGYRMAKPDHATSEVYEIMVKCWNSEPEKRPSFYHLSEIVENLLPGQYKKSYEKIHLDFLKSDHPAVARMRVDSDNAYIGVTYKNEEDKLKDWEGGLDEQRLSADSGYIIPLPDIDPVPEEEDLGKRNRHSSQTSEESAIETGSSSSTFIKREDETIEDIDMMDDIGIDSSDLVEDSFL
T5 sequence (P09619 33-1106): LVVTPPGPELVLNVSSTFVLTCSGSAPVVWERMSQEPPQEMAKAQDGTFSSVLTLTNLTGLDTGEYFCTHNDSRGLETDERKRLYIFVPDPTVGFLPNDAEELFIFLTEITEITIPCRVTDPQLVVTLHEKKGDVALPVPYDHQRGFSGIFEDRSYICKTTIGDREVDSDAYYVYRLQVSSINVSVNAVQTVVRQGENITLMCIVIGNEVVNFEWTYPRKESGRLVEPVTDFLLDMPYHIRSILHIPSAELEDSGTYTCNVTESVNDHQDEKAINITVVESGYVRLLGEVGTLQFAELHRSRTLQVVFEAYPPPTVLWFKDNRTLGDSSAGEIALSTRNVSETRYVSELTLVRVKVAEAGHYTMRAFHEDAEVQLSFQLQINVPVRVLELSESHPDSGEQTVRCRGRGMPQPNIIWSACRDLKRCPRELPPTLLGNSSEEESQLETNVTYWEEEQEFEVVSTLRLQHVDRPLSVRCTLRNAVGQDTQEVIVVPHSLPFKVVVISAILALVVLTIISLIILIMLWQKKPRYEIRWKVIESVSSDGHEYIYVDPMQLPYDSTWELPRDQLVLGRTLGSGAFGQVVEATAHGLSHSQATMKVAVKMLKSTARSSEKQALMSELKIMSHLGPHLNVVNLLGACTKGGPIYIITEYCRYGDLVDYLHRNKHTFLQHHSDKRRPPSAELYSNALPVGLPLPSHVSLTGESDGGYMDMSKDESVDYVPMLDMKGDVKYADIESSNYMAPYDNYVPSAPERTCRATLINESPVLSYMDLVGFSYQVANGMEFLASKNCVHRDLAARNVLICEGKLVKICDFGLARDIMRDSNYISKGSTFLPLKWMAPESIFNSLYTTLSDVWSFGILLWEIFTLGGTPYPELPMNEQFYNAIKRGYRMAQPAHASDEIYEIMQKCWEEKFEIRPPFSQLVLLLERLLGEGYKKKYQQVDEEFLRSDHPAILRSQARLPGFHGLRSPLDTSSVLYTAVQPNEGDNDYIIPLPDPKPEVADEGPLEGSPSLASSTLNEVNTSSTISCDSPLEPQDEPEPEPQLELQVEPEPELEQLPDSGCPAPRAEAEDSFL
T3 sequence (P10721 with tags, fused parts or gaps): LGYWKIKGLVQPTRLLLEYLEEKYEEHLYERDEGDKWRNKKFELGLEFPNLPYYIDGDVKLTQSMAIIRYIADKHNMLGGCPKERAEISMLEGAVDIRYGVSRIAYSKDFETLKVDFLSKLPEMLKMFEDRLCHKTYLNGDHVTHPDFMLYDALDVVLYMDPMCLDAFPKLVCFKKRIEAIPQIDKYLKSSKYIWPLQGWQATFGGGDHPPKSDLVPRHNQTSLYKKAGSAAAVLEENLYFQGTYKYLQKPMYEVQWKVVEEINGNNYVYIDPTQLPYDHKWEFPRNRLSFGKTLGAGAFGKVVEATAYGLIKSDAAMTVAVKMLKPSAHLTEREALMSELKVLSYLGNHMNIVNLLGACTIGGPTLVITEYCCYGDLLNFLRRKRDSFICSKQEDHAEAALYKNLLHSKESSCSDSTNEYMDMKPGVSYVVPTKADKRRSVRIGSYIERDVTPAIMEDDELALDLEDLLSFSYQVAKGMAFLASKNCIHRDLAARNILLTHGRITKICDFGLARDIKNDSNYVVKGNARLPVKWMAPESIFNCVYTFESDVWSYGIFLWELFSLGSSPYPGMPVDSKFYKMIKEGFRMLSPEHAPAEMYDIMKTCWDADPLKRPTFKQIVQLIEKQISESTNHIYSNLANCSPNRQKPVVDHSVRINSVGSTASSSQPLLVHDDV

`Cc1cc(F)c(NC(=O)C2(C(=O)Nc3ccc(F)cc3)CC2)cc1Oc1nccc(-c2cn[nH]c2)n1` [Example 54, N-(5-(4-(1H-pyrazol-4-yl)pyrimidin-2-yloxy)-2-fluoro-4-methylphenyl)-N′-(4-fluorophenyl)cyclopropane-1,1-dicarboxamide]: the IC50 in test [1], in test [2] and in test [3] was < 10000 nM in each case.
With `CC[C@H](NC(=O)C1(C(=O)Nc2ccc(Oc3ccnc(-c4cnn(C)c4)c3)c(F)c2)CC1)c1ccc(F)cc1` [Example 34, N-(3-fluoro-4-(2-(1-methyl-1H-pyrazol-4-yl)pyridin-4-yloxy)phenyl)-N′-((S)-1-(4-fluorophenyl)propyl)cyclopropane-1,1-dicarboxamide], in test [1], the IC50 was < 2000 nM.
As for `Cc1cc(F)c(NC(=O)C2(C(=O)Nc3ccc(F)cc3)CC2)cc1Oc1nccc(-c2cnn(C)c2)n1` [Example 52, N-(2-fluoro-4-methyl-5-(4-(1-methyl-1H-pyrazol-4-yl)pyrimidin-2-yloxy)phenyl)-N′-(4-fluorophenyl)cyclopropane-1,1-dicarboxamide], the IC50 in test [1], in test [2] and in test [3] was < 10000 nM in each case.
As to `Cc1c(Oc2ccnc(-c3cnn(C)c3)c2)ccc(NC(=O)C2(C(=O)Nc3ccc(F)cc3)CC2)c1F` [Example 32, N-(2-fluoro-3-methyl-4-(2-(1-methyl-1H-pyrazol-4-yl)pyridin-4-yloxy)phenyl)-N-(4-fluorophenyl)cyclopropane-1,1-dicarboxamide], the IC50 in test [1] is < 2000 nM; in test [2] it was < 10000 nM; in test [3] it was < 2000 nM.
Turning to `COC[C@H](NC(=O)C1(C(=O)Nc2ccc(Oc3ccnc(-c4cnn(C)c4)c3)c(F)c2)CC1)c1ccc(F)cc1` [Example 36, N-(3-fluoro-4-(2-(1-methyl-1H-pyrazol-4-yl)pyridin-4-yloxy)phenyl)-N′((R)-1-(4-fluorophenyl)-2-methoxyethyl)cyclopropane-1,1-dicarboxamide], in test [1], the IC50 is < 2000 nM.
As for `CN(C(=O)C1(C(=O)Nc2ccc(F)cc2)CC1)c1ccc(Oc2ccnc(-c3cnn(C)c3)c2)c(F)c1` [Example 58, N-(3-fluoro-4-(2-(1-methyl-1H-pyrazol-4-yl)pyridin-4-yloxy)phenyl)-N′-(4-fluorophenyl)-N-methylcyclopropane-1,1-dicarboxamide], the IC50 in test [1], in test [4], in test [2] and in test [5] was < 10000 nM in each case.
For `Cn1cc(-c2cc(Oc3ccc(NC(=O)C4(C(=O)Nc5ccc(F)c(F)c5)CC4)c(F)c3)ccn2)cn1` [Example 24, N-(3,4-difluorophenyl)-N′-(2-fluoro-4-(2-(1-methyl-1H-pyrazol-4-yl)pyridin-4-yloxy)phenyl)cyclopropane-1,1-dicarboxamide], in test [1], the IC50 was < 2000 nM.
`Cn1cc(-c2cc(Oc3ccc(NC(=O)C4(C(=O)Nc5ccc(F)cc5Cl)CC4)c(F)c3)ccn2)cn1` [Example 29, N-(2-chloro-4-fluorophenyl)-N′-(2-fluoro-4-(2-(1-methyl-1H-pyrazol-4-yl)pyridin-4-yloxy)phenyl)cyclopropane-1,1-dicarboxamide]: the IC50 in test [1] is < 2000 nM.
Turning to `Cn1cc(-c2cc(Oc3ccc(NC(=O)C4(C(=O)Nc5ccc(F)c(C#N)c5)CC4)c(F)c3)ccn2)cn1` [Example 26, N-(3-cyano-4-fluorophenyl)-N′-(2-fluoro-4-(2-(1-methyl-1H-pyrazol-4-yl)pyridin-4-yloxy)phenyl)cyclopropane-1,1-dicarboxamide], the IC50 in test [1] is < 10000 nM.
Same read-out and setting: in the case of `Cn1cc(-c2cc(Oc3ccc(NC(=O)C4(C(=O)Nc5cccs5)CC4)c(F)c3)ccn2)cn1` [Example 35, N-(2-fluoro-4-(2-(1-methyl-1H-pyrazol-4-yl)pyridin-4-yloxy)phenyl)-N′-(thiophen-2-yl)cyclopropane-1,1-dicarboxamide] it was < 2000 nM.
With `Cn1cc(-c2cc(Oc3ccc(NC(=O)C4(C(=O)Nc5ccc(F)cc5)CC4)c(F)c3F)ccn2)cn1` [Example 1, N-(2,3-difluoro-4-(2-(1-methyl-1H-pyrazol-4-yl)pyridin-4-yloxy)phenyl)-N′-(4-fluorophenyl)cyclopropane-1,1-dicarboxamide], the IC50 in test [1] was < 200 nM; in test [4], < 2000 nM; in test [2], < 2000 nM; in test [5], < 200 nM; in test [6], < 2000 nM.
Consider `Cn1cc(-c2cc(Oc3ccc(NC(=O)C4(C(=O)Nc5ccc(C(F)(F)F)cc5)CC4)c(F)c3)ccn2)cn1` [Example 25, N-(2-fluoro-4-(2-(1-methyl-1H-pyrazol-4-yl)pyridin-4-yloxy)phenyl)-N′-(4-(trifluoromethyl)phenyl)cyclopropane-1,1-dicarboxamide], for which, in test [1], the IC50 is < 2000 nM.
Consider `Cn1cc(-c2cc(Oc3ccc(NC(=O)C4(C(=O)NCc5ccccc5)CC4)c(F)c3F)ccn2)cn1` [Example 3, N-benzyl-N′-(2,3-difluoro-4-(2-(1-methyl-1H-pyrazol-4-yl)pyridin-4-yloxy)phenyl)cyclopropane-1,1-dicarboxamide], for which the IC50 in test [2] is < 2000 nM; in test [5], < 2000 nM; in test [6], < 10000 nM.
As for `Cn1cc(-c2cc(Oc3ccc(NC(=O)C4(C(=O)Nc5ccc(C#N)cc5)CC4)c(F)c3)ccn2)cn1` [Example 28, N-(4-cyanophenyl)-N′-(2-fluoro-4-(2-(1-methyl-1H-pyrazol-4-yl)pyridin-4-yloxy)phenyl)cyclopropane-1,1-dicarboxamide], the IC50 in test [1] is < 10000 nM.
Consider `O=C(Cc1ccc(F)cc1)NC(=O)Nc1ccc(Oc2ccnc(-c3nc(C(F)(F)F)c[nH]3)c2)cc1` [Example 39, 1-(2-(4-fluorophenyl)acetyl)-3-(4-(2-(4-(trifluoromethyl)-1,1-imidazol-2-yl)pyridin-4-yloxy)phenyl)urea], for which the figures for the IC50 in test [5] and in test [6] were < 200 nM and < 2000 nM, respectively.
With `Cn1cc(-c2cc(Oc3ccc(NC(=O)C4(C(=O)Nc5ccc(F)cc5F)CC4)c(F)c3)ccn2)cn1` [Example 27, N-(2,4-difluorophenyl)-N′-(2-fluoro-4-(2-(1-methyl-1H-pyrazol-4-yl)pyridin-4-yloxy)phenyl)cyclopropane-1,1-dicarboxamide], the IC50 in test [1] was < 2000 nM.
Regarding `O=C(Nc1ccc(F)cc1)C1(C(=O)Nc2ccc(Oc3ccnc(-c4c[nH]nn4)c3)cc2F)CC1` [Example 60, N-(4-(2-(1H-1,2,3-triazol-4-yl)pyridin-4-yloxy)-2-fluorophenyl)-N′-(4-fluorophenyl)cyclopropane-1,1-dicarboxamide], in test [1], the IC50 is < 2000 nM.
Same read-out and setting: to `C[C@H](NC(=O)C1(C(=O)Nc2ccc(Oc3ccnc(-c4cnn(C)c4)c3)c(F)c2)CC1)c1ccc(F)cc1` [Example 33, N-(3-fluoro-4-(2-(1-methyl-1H-pyrazol-4-yl)pyridin-4-yloxy)phenyl)-N′-((S)-1-(4-fluorophenyl)ethyl)cyclopropane-1,1-dicarboxamide] belongs < 2000 nM.

For the origin of these results see patent US8486951B2 (Deciphera Pharmaceuticals, LLC, priority 2008, dated 2013).
